# From patent US20250017958A1, “COMBINATORIAL THERAPEUTIC APPROACH FOR FRIEDREICH'S ATAXIA” (University of Florida Research Foundation, Incorporated, priority 2021, published 2025)
# “Also recorded” adds a separate entry of the source.
# Columns and labels:
# [1] = system: NRF2; details: FRDA patients with moderate dysfunction (Lynch D R et al. 2021); cited from earlier work
# [2] = system: FXN; assay: FXN expression in FRDA patient fibroblasts (Western blot, qPCR); assay type: cell-based, human
# Description: FIG. 2A. […] Expression levels were determined using Real-time PCR and normalized to Hprtl. Experiments were conducted in triplicates and values expressed as mean±SEM. One-way ANOVA and 0.05**
# (§1) FIG. 2B. […] N=3. One-way ANOVA and Welch's t-test, ±SEM. *p≤0.05, **p≤0.01, ***p 0.001.
# (§2) FIG. 3A-B. Western blot analysis of FXN and NRF2 in FRDA cells and FRDAkd mice after quercetin treatment.
# (§3) FIG. 3C-D. Western blot analysis of FXN and NRF2 in FRDA cells and FRDAkd mice after quercetin treatment. […] Tg Low Dox animals were treated with 625 mg/kg doxycycline (FXN knockdown) and Tg Low Dox+Quercetin animal was provided with 625 mg/kg doxycycline plus 35 mg/kg/day of quercetin. […] Overall, quercetin increased the expression of FXN and NRF2 in both in vitro and in vivo conditions.
# [3] = system: NRF2; assay: NRF2 expression in FRDA patient fibroblasts (Western blot, qPCR); assay type: cell-based, human
# Source text: as §1, §2
# [4] = system: FXN; assay: FXN expression in tissues of FRDAkd mice (Western blot); assay type: in vivo, mouse; details: for expression of FXN (Western blot): 35 mg/kg/day quercetin, 625 mg/kg doxycycline
# Description: as §2, §3
# [5] = system: NRF2; assay: NRF2 expression in tissues of FRDAkd mice (Western blot); assay type: in vivo, mouse; details: for expression of NRF2 (Western blot): 35 mg/kg/day quercetin, 625 mg/kg doxycycline
# Description: as §2, §3
# [6] = system: iron metabolism-related genes; assay: Expression of iron metabolism-related genes in cell lines (Real-time PCR); assay type: cell-based, human; details: various cell lines, including FRDA patient fibroblast cell lines
# Description: FIG. 2A. Graphs illustrating expression levels of frataxin (FXN) and various iron metabolism-related genes in control fibroblasts (age and sex matched) or fibroblasts from a patient with Friedreich's Ataxia (FRDA) treated with vehicle or 75 μM quercetin. Expression levels were determined using Real-time PCR and normalized to Hprtl. Experiments were conducted in triplicates and values expressed as mean±SEM. One-way ANOVA and 0.05**
# [7] = system: FRDAkd mice; assay: Survival of FRDAkd mice after FXN knockdown (DOX); assay type: in vivo, mouse; details: combination versus individual treatment
# Description: FIG. 4. […] No mortality was observed FRDAkd mice (DOX) treated with quercetin, taurine, and EGCG. FRDAkd mice were treated with doxycycline (DOX for FXN knockdown) or with doxycycline plus 100 mg/kg/day taurine, 35 mg/kg/day quercetin, and 4.6 mg/kg/day EGCG, and 0.5 mg/kg/day of ferrous sulfate for 16 weeks. N=10 animals per group.
# [8] = previous studies (Lesjak M et al. 2019); cited from earlier work
# [9] = system: FXN; details: phase 3 randomized controlled trial, FRDA; cited from earlier work
# [10] = FRDA fibroblast cell line, 24 hours quercetin, 75 μM and 100 μM
# [11] = FRDA patient fibroblast cell lines (in vitro), summary statement
# [12] = fibroblasts from patients with FRDA, quercetin dose series
# [13] = several tissues from quercetin-treated FRDAkd mice (in vivo), summary statement
molecule,measurement,setting,value
CC1(C)CC[C@]2(NC(=O)C(C)(F)F)CC[C@]3(C)[C@H](C(=O)C=C4[C@@]5(C)C=C(C#N)C(=O)C(C)(C)[C@@H]5CC[C@]43C)[C@@H]2C1 [omaveloxolone],neurological function,[1],improved
"O=c1c(O)c(-c2ccc(O)c(O)c2)oc2cc(O)cc(O)c12 [quercetin, 3,3′,4′,5,7-Pentahydroxyflavone]","expression of FXN (Western blot, independent replication)","[2]; FRDA fibroblast cell line, 24 hours quercetin, 7 μM dose",increased expression
same,expression of FXN (Western blot),[2]; [10],Increased expression
same,FXN expression,[2]; [11],increase; also recorded: enhanced
same,FXN marker gene expression (qPCR),[2]; [12],dose-dependent effects
same,expression of NRF2 (Western blot),[3]; [10],Increased expression
same,NRF2 expression,[3]; [11],increase; also recorded: enhanced
same,NRF2 marker gene expression (qPCR),[3]; [12],dose-dependent effects
same,expression of FXN (Western blot),"[4]; FRDAkd mice heart, eight weeks",Increased expression
same,expression of FXN (Western blot),"[4]; FRDAkd mice liver, three weeks",Increased expression
same,FXN expression,[4]; [13],increase; also recorded: enhanced
same,expression of NRF2 (Western blot),"[5]; FRDAkd mice heart, eight weeks",Increased expression
same,expression of NRF2 (Western blot),"[5]; FRDAkd mice liver, three weeks",Increased expression
same,NRF2 expression,[5]; [13],increase; also recorded: enhanced
same,expression of several genes involved in iron metabolism,[6],increase expression
same,survival in mouse FRDA models,[7],did not improve survival rates
same,serum and tissue iron,[8],depletion
"NCCS(=O)(=O)O [taurine, 2-Aminoethane-1-sulfonic acid]",survival in mouse FRDA models,[7],did not improve survival rates
"O=C(O[C@@H]1Cc2c(O)cc(O)cc2O[C@@H]1c1cc(O)c(O)c(O)c1)c1cc(O)c(O)c(O)c1 [EGCG, (2R,3R)-3′,4′,5,5′,7-Pentahydroxyflavan-3-yl 3,4,5-trihydroxybenzoate]",survival in mouse FRDA models,[7],did not improve survival rates
"interferon γ-1b: treatment option for FRDA to increase FXN levels, dropped at phase 3 (protein, UniProt P01579 24-161, looked up) Interferon gamma: QDPYVKEAENLKKYFNAGHSDVADNGTLFLGILKNWKEESDRKIMQSQIVSFYFKLFKNFKDDQSIQKSVETIKEDMNVKFFNSNKKKRDDFEKLTNYSVTDLNVQRKAIHELIQVMAELSPAAKTGKRKRSQMLFRG",outcome measures,[9],failure to show any improvement
